Measurements taken from US20040024024A1, “Aromatic sulfone hydroxamates and their use as protease inhibitors” (priority 2001, published 2004).
Where a name gives a salt, the structure may show the parent alone.

What was measured:
Human recombinant MMP-2 = target: T1, Human recombinant MMP-2 (Homo sapiens, UniProt P08253); assay: In vitro MMP inhibition, Ki determination (fluorogenic substrate II); assay type: biochemical
T1 construct: made in house; host or cells: MMP-2-transfected p2AHT2 cells
T1 sequence (P08253 110-660): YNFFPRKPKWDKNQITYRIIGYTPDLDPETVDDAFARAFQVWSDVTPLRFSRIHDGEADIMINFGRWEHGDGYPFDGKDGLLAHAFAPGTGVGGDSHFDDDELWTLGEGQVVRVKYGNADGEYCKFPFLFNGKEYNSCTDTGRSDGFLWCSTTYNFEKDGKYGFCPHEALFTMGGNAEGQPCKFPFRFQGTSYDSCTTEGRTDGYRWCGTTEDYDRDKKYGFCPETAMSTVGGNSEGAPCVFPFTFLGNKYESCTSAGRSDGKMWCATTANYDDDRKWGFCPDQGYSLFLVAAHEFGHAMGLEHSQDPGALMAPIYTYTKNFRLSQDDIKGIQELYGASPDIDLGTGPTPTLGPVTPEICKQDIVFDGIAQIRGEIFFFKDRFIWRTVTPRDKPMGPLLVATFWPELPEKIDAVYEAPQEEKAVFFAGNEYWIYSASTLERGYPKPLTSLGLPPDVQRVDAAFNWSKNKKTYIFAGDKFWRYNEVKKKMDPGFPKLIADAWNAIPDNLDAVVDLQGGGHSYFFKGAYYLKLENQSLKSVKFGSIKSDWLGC
Protocol: (§1) Several hydroxamates and salts thereof were analyzed in in vitro assays to determine their ability to inhibit the MMP cleavage of peptide substrates. Inhibition (Ki) and IC50 constants were calculated from the assayed hydroxamate-MMP interactions.
(§2) Human recombinant MMP-1, MMP-2, MMP-9, MMP-13, and MMP-14 were used in this assay. All enzymes were prepared in Assignee's laboratories following usual laboratory procedures. Protocols for the preparation and use of these enzymes are available in the scientific literature. See, e.g., Enzyme Nomenclature (Academic Press, San Diego, Calif., 1992) (and the citations therein). See also, Frije et al., J. Biol. Chem., 26(24), 16766-73 (1994).
The MMP-2 proenzyme was purified by gelatin Sepharose chromatography from MMP-2-transfected p2AHT2 cells provided by Dr. Gregory Goldberg of Washington University (St. Louis, Mo.).
(§3) All MMPs were activated using 4-aminophenylmercuric acetate (“APMA”, Sigma Chemical, St. Louis, Mo.) or trypsin. MMP-9 also was activated using human recombinant MMP-3 (purified in Assignee's laboratory following standard cloning and purification techniques).
(§4) Two fluorogenic, methoxycoumarin-containing polypeptide substrates were used in the MMP inhibition assays:
(§5) MCA-ArgProLeuGlyLeuDpaAlaArgGluArgNH2 (II)
(§6) Here, “Dpa” is 3-(2,4-dinitrophenyl)-L-2,3-diaminopropionyl group, and “MCA” is 7-methoxycoumarin-4-yl acetyl. Substrate (I) was purchased from Baychem (Redwood City, Calif.), and substrate II was prepared Assignee's laboratory. Substrate I was used in the IC50 determination assays, while substrate II was used in the Ki determination assays. In the absence of MMP inhibitory activity, either substrate is cleaved at the Gly-Leu peptide bond. This cleavage separates the highly fluorogenic peptide from the 2,4-dinitrophenyl quencher, thus resulting in increase of fluorescent intensity.
(§7) The stock solutions of the assayed hydroxamates (or salts thereof) were prepared in 1% dimethyl sulfoxide (DMSO). These stock solutions were diluted in Buffer A (100 mM Tris-HCl, 100 mM NaCl, 10 mM CaCl2, 0.05% polyoxyethylene 23 lauryl ether, pH 7.5) to obtain solutions with different hydroxamate concentrations, i.e., assay solutions with different concentrations of the assayed MMP inhibitory compound. The experiment controls contained the same amount of Buffer A/DMSO as the assayed sample, but contained no hydroxamate (or salt thereof).
The assays from which the Ki determinations were made were performed as follows. The assayed hydroxamate samples were incubated in separate wells of untreated white polystyrene plates (Nunc Nalgene International, Rochester, N.Y.), and analyzed on a Tecan SpectraFlour Plus plate reader. The excitation wavelength was 330 nm, and the emission wavelength—420 nm. All samples (assayed hydroxamates and controls) were incubated in separate plate wells at room temperature for 1 hr in the presence of 4 μM of MMP substrate (II). In the absence of MMP inhibitory activity, substrate II was cleaved at the Gly-Leu bond resulting in an increase of relative fluorescence. Inhibition was observed as a reduced rate of this increase in relative fluorescence. The various hydroxamates were analyzed using a single low enzyme concentration with a single substrate concentration fixed at or below the Km. This protocol is a modification of method by Knight et al., FEBS Lett., 296(3), 263-266 (1992). Apparent inhibitory constants were determined by non-linear regression of reaction velocity as a function of inhibitor and enzyme concentration using Morrison's equation, as described by Kuzmic, Anal. Biochem. 286, 45-50 (2000). […] Since the substrate concentration was chosen to be at or below the Km, the apparent Ki's from this analysis were reported as Ki's without correction for the influence of substrate.

Human recombinant MMP-14 = target: T2, Human recombinant MMP-14 (Homo sapiens, UniProt P50281); assay: as above; assay type: biochemical
T2 construct: The catalytic domain enzyme was expressed in E. coli inclusion bodies, solubilized in urea; made in house
Protocol: as §1, §2
The MMP-14 full length cDNA was provided by Dr. Gregory Goldberg of Washington University (St. Louis, Mo.). The catalytic domain enzyme was expressed in E. coli inclusion bodies, solubilized in urea, purified on a preparative […] reverse phase HPLC column, and then refolded in the presence of zinc acetate and purified for use.
as §3, §4, §5, §6, §7
The assays from which the Ki determinations were made were performed as follows. The assayed hydroxamate samples were incubated in separate wells of untreated white polystyrene plates (Nunc Nalgene International, Rochester, N.Y.), and analyzed on a Tecan SpectraFlour Plus plate reader. The excitation wavelength was 330 nm, and the emission wavelength—420 nm. All samples (assayed hydroxamates and controls) were incubated in separate plate wells at room temperature for 1 hr in the presence of 4 μM of MMP substrate (II). In the absence of MMP inhibitory activity, substrate II was cleaved at the Gly-Leu bond resulting in an increase of relative fluorescence. Inhibition was observed as a reduced rate of this increase in relative fluorescence. The various hydroxamates were analyzed using a single low enzyme concentration with a single substrate concentration fixed at or below the Km. This protocol is a modification of method by Knight et al., FEBS Lett., 296(3), 263-266 (1992). Apparent inhibitory constants were determined by non-linear regression of reaction velocity as a function of inhibitor and enzyme concentration using Morrison's equation, as described by Kuzmic, Anal. Biochem. 286, 45-50 (2000). Modifications were made in the non-linear regression method to allow a common control reaction rate and effective enzyme concentration to be shared between all dose-response relationships on a given assay plate. […]

[1] = substrate (II) 4 μM, 1 hr room temperature, apparent Ki, values in parenthesis

Structure (SMILES) | Ki (Human recombinant MMP-2; value in parentheses) [nM] | Ki (Human recombinant MMP-14; value in parentheses) [nM] | Ki (Human recombinant MMP-2; value in parenthesis) [nM] | Ki (Human recombinant MMP-14; value in parenthesis) [nM] | further results
CCN1CCC(C(=O)NO)(S(=O)(=O)c2ccc(OCCCc3nc(-c4ccc(OC(F)(F)F)cc4)no3)cc2)CC1 [Example 41, 1-ethyl-N-hydroxy 4-{[4-(3-{3-[4-(trifluoromethoxy)phenyl]-1,2,4-oxadiazol-5-yl}propoxy)phenyl]sulfonyl}piperidine-4-carboxamide Hydrochloride] |  |  |  |  | Ki (Human recombinant MMP-2; [1]): 415 nM; Ki (Human recombinant MMP-14; [1]): > 10000 nM
COCCN1CCC(C(=O)NO)(S(=O)(=O)c2ccc(OCCCc3nnc(-c4ccccc4C(F)(F)F)o3)cc2)CC1 [Example 178] |  |  | 39.3 | > 10000 | 
O=C(NO)C1(S(=O)(=O)c2ccc(OCCCc3cccc(-c4ccc5c(c4)OCCO5)c3)cc2)CCOCC1 [Example 627] | 3950 | > 10000 |  |  | 
O=C(NO)C1(S(=O)(=O)c2ccc(OCCCc3nc(-c4ccccc4)no3)cc2)CCOCC1 [Example 584] | 20.8 | 6630 |  |  | 
COCCN1CCC(C(=O)NO)(S(=O)(=O)c2ccc(OCCCc3nc(-c4ccccc4OC(F)(F)F)no3)cc2)CC1 [Example 152] |  |  | 149 | > 10000 | 
COc1ccc(/C(C#N)=C/CCCOc2ccc(S(=O)(=O)C3(C(=O)NO)CCN(C4CC4)CC3)cc2)cc1 [Example 233] |  |  | 60.2 | > 10000 | 
O=C(NO)C1(S(=O)(=O)c2ccc(OCCc3cccc(-c4cccnc4)c3)cc2)CCOCC1 [Example 125] |  |  | 51.3 | 1670 | 
NC(=O)c1cccc(OCCOc2ccc(S(=O)(=O)C3(C(=O)NO)CCOCC3)cc2)c1 [Example 54] |  |  |  |  | Ki (Human recombinant MMP-2; [1]): 64.8 nM; Ki (Human recombinant MMP-14; [1]): 4120 nM
O=C(NO)C1(S(=O)(=O)c2ccc(OCCCc3ccnc(-c4ccccc4)c3)cc2)CCOCC1 [Example 197] |  |  | 30.7 | > 10000 | 
O=C(NO)C1(S(=O)(=O)c2ccc(OCCCc3cccc(-c4cc5ccccc5s4)c3)cc2)CCOCC1 [Example 633] | 4580 | > 10000 |  |  | 

Continued, in another order:

Ki (Human recombinant MMP-2; value in parentheses) [nM] | Ki (Human recombinant MMP-14; value in parentheses) [nM] | Ki (Human recombinant MMP-2; value in parenthesis) [nM] | Ki (Human recombinant MMP-14; value in parenthesis) [nM] | Structure (SMILES) | further results
11.2 | 1160 |  |  | O=C(Cc1csc2ccccc12)NCCOc1ccc(S(=O)(=O)C2(C(=O)NO)CCOCC2)cc1 [Example 596] | 
 |  | 3.12 | 1700 | O=C(CCCOc1ccc(S(=O)(=O)C2(C(=O)NO)CCOCC2)cc1)Nc1ccc(OC(F)(F)F)cc1 [Example 250] | 
 |  | 10.4 | 7870 | Cc1cc(OC(F)(F)F)ccc1NC(=O)CCCOc1ccc(S(=O)(=O)C2(C(=O)NO)CCOCC2)cc1 [Example 229] | 
197 | > 10000 |  |  | O=C(NO)C1(S(=O)(=O)c2ccc(OCCCc3cncc(-c4ccc(F)cc4)c3)cc2)CCOCC1 [Example 523] | 
 |  | 295 | > 10000 | O=C(NO)C1(S(=O)(=O)c2ccc(OCCCc3cccc(-c4ccco4)c3)cc2)CCOCC1 [Example 97] | 
724 | > 10000 |  |  | O=C(NO)C1(S(=O)(=O)c2ccc(OCCCc3cc(-c4ccc(OC(F)(F)F)cc4)cs3)cc2)CCOCC1 [Example 608] | 
 |  | > 10000 | > 10000 | O=C(NO)C1(S(=O)(=O)c2ccc(OCCCc3cccc(-c4ccc(OC(F)(F)F)cc4)c3)cc2)CCOCC1 [Example 147] | 
 |  | 42.3 | 3480 | O=C(NO)C1(S(=O)(=O)c2ccc(OCCc3cccc(-c4ccncc4)c3)cc2)CCOCC1 [Example 113] | 
